Results on two molecules are retold here after patent publication US8580941B2, “Epididymal lipocalin gene and uses thereof” (Vanderbilt University, priority 2000, dated 2013).

The test system of the experiment is mEP17 protein. Put plainly: Regulation of mEP17 protein expression (Western blotting and immunohistochemistry) in treated mice. The format is in vivo, mouse. From the text: The regulation of mEP17 protein expression was investigated using Western blotting and immunohistochemistry in castrated mice, castrated testosterone supplemented mice, unilateral castrated mice, unilateral cryptorchid mice, and busulphan-treated mice. As previously observed at the mRNA level (FIGS. 15A-15C), mEP17 protein disappeared from the initial segment two days after bilateral castration and was not restored by testosterone treatment. Similarly, after unilateral castration, mEP17 protein disappeared from the castrated side, but not from the non-castrated side.
To determine whether germ cell-associated testicular factors can regulate mEP17, spermatogenesis was disrupted using cryptorchidism or busulphan treatment. One month following cryptorchidism, mEP17 protein was not detected in the initial segment of the cryptorchid epididymis but was detected at normal levels in the scrotal epididymis. In cryptorchidism, the testis and the epididymis are exposed to abdominal temperature. To distinguish the effects of abdominal temperature on the testis or epididymis, spermatogenesis was also disrupted by busulphan treatment.
(A western blot detects proteins with antibodies after separation by electrophoresis.)

For `CS(=O)(=O)OCCCCOS(C)(=O)=O` [busulphan], the “level of mEP17 protein compared to untreated controls” value (busulphan-treated mice, following a 35-day treatment (disruption of spermatogenesis)) is “drastically reduced”.

In the case of `C[C@]12CC[C@H]3[C@@H](CCC4=CC(=O)CC[C@@]43C)[C@@H]1CC[C@@H]2O` [testosterone], the “mEP17 protein in the initial segment of the epididymis after testosterone treatment” value (castrated testosterone supplemented mice, protein disappeared two days after bilateral castration) was “not restored”.
